Reference: ChEMBL document CHEMBL4665805, “Expression of the Clifednamide Biosynthetic Pathway in Streptomyces Generates 27,28-seco-Derivatives” (J Nat Prod, 2020)
Calls of active or inactive are those of the source. The calls are words filed in the database; no cut-off is given here.

Key:
Fusarium graminearum = test: Antimicrobial activity against Fusarium graminearum at 50 microg/disk by disc diffusion assay; type: functional, organism-based; details: dose 50.0 µg/disk
Pythium aphanidermatum = test: Antimicrobial activity against Pythium aphanidermatum at 50 microg/disk by disc diffusion assay; type: functional, organism-based; details: dose 50.0 µg/disk
Streptomyces sp. = test: Antimicrobial activity against Streptomyces sp. S001 at 20 microg/disk by disc diffusion assay; type: functional, organism-based; details: dose 20.0 µg/disk
Salmonella typhimurium = test: Antimicrobial activity against Salmonella enterica serovar Typhimurium UK-1 x8956 at 20 microg/disk by disc diffusion assay; type: functional, organism-based; details: Salmonella enterica subsp. enterica serovar Typhimurium, dose 20.0 µg/disk
Xanthomonas oryzae = test: Antimicrobial activity against Xanthomonas oryzae pv. oryzicola RS105 at 20 microg/disk by disc diffusion assay; type: functional; details: dose 20.0 µg/disk
Bacillus subtilis = test: Antimicrobial activity against Bacillus subtilis at 20 microg/disk by disc diffusion assay; type: functional, organism-based; details: dose 20.0 µg/disk
Staphylococcus aureus = test: Antimicrobial activity against Staphylococcus aureus ATCC 25923 at 20 microg/disk by disc diffusion assay; type: functional, organism-based; details: dose 20.0 µg/disk
MIA PaCa-2 = test: Cytotoxicity against human MIA PaCa-2 cells assessed as reduction in cell viability by MTT assay; type: functional, cell-based
A549 = test: Cytotoxicity against human A549 cells assessed as reduction in cell viability by MTT assay; type: functional, cell-based

CC(=O)[C@H]1[C@@H]2C=C[C@@H]3[C@@H](C/C=C\C(N)=O)[C@H](/C=C/C(=O)C4=C(O)[C@H](CCC(=O)O)NC4=O)C[C@@H]3[C@H]2C[C@H]1C
Activity (Fusarium graminearum): inactive
Activity (Pythium aphanidermatum): inactive
Activity (Streptomyces sp.): inactive
Activity (Salmonella typhimurium): inactive
Activity (Xanthomonas oryzae): inactive
Activity (Bacillus subtilis): inactive
Activity (Staphylococcus aureus): inactive

CC(=O)[C@H]1[C@@H]2C=C[C@H](/C=C/C=C/C(N)=O)[C@H](/C=C/C=C/C(=O)C3=C(O)[C@H](CCC(=O)O)NC3=O)[C@H]2C[C@H]1C
Activity (Fusarium graminearum): inactive
Activity (Pythium aphanidermatum): inactive
Activity (Streptomyces sp.): inactive
Activity (Salmonella typhimurium): inactive
Activity (Xanthomonas oryzae): inactive
Activity (Bacillus subtilis): inactive
Activity (Staphylococcus aureus): inactive
IC50 (MIA PaCa-2): 9.6 µM

CC(O)[C@H]1[C@@H]2C=C[C@@H]3/C=C/C=C/C(=O)NCC[C@H](O)[C@@H]4NC(=O)C(=C4O)C(=O)/C=C/C=C/[C@@H]3[C@H]2C[C@H]1C (some centres undefined)
Activity (Fusarium graminearum): inactive
Activity (Pythium aphanidermatum): inactive
Activity (Streptomyces sp.): inactive
Activity (Salmonella typhimurium): inactive
Activity (Xanthomonas oryzae): inactive
Activity (Bacillus subtilis): inactive
Activity (Staphylococcus aureus): inactive

CC(=O)[C@H]1[C@@H]2C=C[C@@H]3/C=C/C=C/C(=O)NCCC[C@@H]4NC(=O)C(=C4O)C(=O)/C=C/C=C/[C@@H]3[C@H]2C[C@H]1C
Activity (Fusarium graminearum): inactive
Activity (Pythium aphanidermatum): inactive
Activity (Streptomyces sp.): inactive
Activity (Salmonella typhimurium): inactive
Activity (Xanthomonas oryzae): inactive
Activity (Bacillus subtilis): inactive
Activity (Staphylococcus aureus): inactive

CC(=O)[C@H]1[C@@H]2C=C[C@@H]3[C@H]4C/C=C\C(=O)NCC[C@H](O)[C@@H]5NC(=O)C(=C5O)C(=O)/C=C/[C@@H]4C[C@@H]3[C@H]2C[C@H]1C
Activity (Fusarium graminearum): inactive
Activity (Pythium aphanidermatum): inactive
Activity (Streptomyces sp.): inactive
Activity (Salmonella typhimurium): inactive
Activity (Xanthomonas oryzae): inactive
Activity (Bacillus subtilis): inactive
Activity (Staphylococcus aureus): inactive
IC50 (A549): 0.53 µM
IC50 (MIA PaCa-2): 1 µM

COc1cccc2c1C(=O)c1c(O)c3c(c(O)c1C2=O)C[C@@](O)(C(=O)CO)C[C@@H]3O[C@H]1C[C@H](N)[C@H](O)[C@H](C)O1 [DOXORUBICIN]
IC50 (MIA PaCa-2): 0.43 µM

CC(=O)[C@H]1[C@@H]2C=C[C@@H]3[C@H]4C/C=C\C(=O)NCCC[C@@H]5NC(=O)C(=C5O)C(=O)/C=C/[C@@H]4C[C@@H]3[C@H]2C[C@H]1C
Activity (Fusarium graminearum): inactive
Activity (Pythium aphanidermatum): inactive
Activity (Streptomyces sp.): inactive
Activity (Salmonella typhimurium): inactive
Activity (Xanthomonas oryzae): inactive
Activity (Bacillus subtilis): inactive
Activity (Staphylococcus aureus): inactive
IC50 (A549): 1.4 µM
IC50 (MIA PaCa-2): 2.4 µM

C[C@@H]1C[C@H]2[C@@H](C=C[C@@H]3[C@H]4C/C=C\C(=O)NCC[C@H](O)[C@@H]5NC(=O)C(=C5O)C(=O)/C=C/[C@@H]4C[C@@H]32)[C@@H]1C(=O)CO
Activity (Fusarium graminearum): inactive
Activity (Pythium aphanidermatum): inactive
Activity (Streptomyces sp.): inactive
Activity (Salmonella typhimurium): inactive
Activity (Xanthomonas oryzae): inactive
Activity (Bacillus subtilis): inactive
Activity (Staphylococcus aureus): inactive

CC[C@H]1[C@@H]2C=C[C@H](/C=C/C=C/C(N)=O)[C@H](/C=C/C=C/C(=O)C3=C(O)[C@H](CCC(=O)O)NC3=O)[C@H]2C[C@H]1C
Activity (Fusarium graminearum): inactive
Activity (Pythium aphanidermatum): inactive
Activity (Streptomyces sp.): inactive
Activity (Salmonella typhimurium): inactive
Activity (Xanthomonas oryzae): inactive
Activity (Bacillus subtilis): inactive
Activity (Staphylococcus aureus): inactive

CC(=O)[C@H]1[C@@H]2C=C[C@@H]3/C=C/C=C/C(=O)NCC[C@H](O)[C@@H]4NC(=O)C(=C4O)C(=O)/C=C/C=C/[C@@H]3[C@H]2C[C@H]1C
Activity (Fusarium graminearum): inactive
Activity (Pythium aphanidermatum): inactive
Activity (Streptomyces sp.): inactive
Activity (Salmonella typhimurium): inactive
Activity (Xanthomonas oryzae): inactive
Activity (Bacillus subtilis): inactive
Activity (Staphylococcus aureus): inactive
